# Test results taken from patent publication EP3056202A1, “BENZOPYRROLIDONE DERIVATIVES POSSESSING ANTIVIRAL AND ANTICANCER PROPERTIES” (Max-Planck-Gesellschaft zur Förderung der Wissenschaften …, priority 2015, dated 2016).
# Key:
# [1] = target: human Akt1 kinase (Homo sapiens, UniProt P31749); assay: In vitro Akt1 assay (IMAP fluorescence polarization, phosphorylation of TAMRA-peptide); format: biochemical; settings: 40 µM ATP; for inhibition at 12.5 µM: 12.5 uM compound, read-out: Akt1 inh% @12.5 uM
# Sequence of human Akt1 kinase (P31749 whole entry): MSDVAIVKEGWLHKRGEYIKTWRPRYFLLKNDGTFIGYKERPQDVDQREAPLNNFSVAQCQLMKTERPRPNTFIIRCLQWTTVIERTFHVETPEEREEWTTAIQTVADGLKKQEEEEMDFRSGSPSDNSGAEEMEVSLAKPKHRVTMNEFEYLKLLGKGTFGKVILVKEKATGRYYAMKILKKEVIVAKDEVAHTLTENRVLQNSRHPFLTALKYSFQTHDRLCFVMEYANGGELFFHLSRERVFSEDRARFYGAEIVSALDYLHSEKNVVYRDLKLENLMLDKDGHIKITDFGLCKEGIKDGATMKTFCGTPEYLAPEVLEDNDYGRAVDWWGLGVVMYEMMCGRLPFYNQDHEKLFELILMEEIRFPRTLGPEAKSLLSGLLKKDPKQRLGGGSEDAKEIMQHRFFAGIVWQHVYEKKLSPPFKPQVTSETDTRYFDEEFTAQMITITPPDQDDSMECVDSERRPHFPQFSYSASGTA
# Method: The inhibition of Akt1 by the compounds described in the present invention were determined measuring the phosphorylation of a fluorescently-labeled peptide (TAMRA-peptide) by human Akt1 kinase by fluorescent polarization using a commercially available IMAP Screening Express Assay Kit (Molecular Devices).
# Akt1 kinase assays were performed in low protein binding 384-well plates (Corning). Test compounds were diluted in 100% DMSO to 5 mM stock concentration and then further dilutions were made in H2O or 100% DMSO to desirable concentrations.
# Each reaction consisted of 5 nM enzyme: Akt1 kinase, 400 nM TAMRA-peptide (5-TAMRA-GRTGRRNSI-COOH; Genecust), 40 µM ATP and kinase buffer: 20 mM MES pH6, 1 mM DTT, 10 mM MgCl2, 2 mM MnCl2, 0.01 V/V% TritonX (all reagents from Sigma-Aldrich).
# (§1) For each reaction, 4 or 6 µl containing TAMRA-peptide, ATP and kinase buffer were combined with 2 µl diluted compound in H2O or 0.02 µl compound in 100% DMSO. The kinase reaction was started by the addition of 2 µl diluted enzyme. The reaction was allowed to run for 1 hour at room temperature. The reaction was stopped by adding 15 µl IMAP beads (1:400 beads in progressive (75% buffer A, 25% buffer B) 1x buffer). After an additional hour, fluorescent polarization (Ex: 550-10 nm, Em: 590-10 nm, Dich: 561 nm) was measured using an Analyst GT (Molecular Devices).
# [2] = tested on: H1 N1 influenza virus strain A/WSN/33; assay: microbe, parasite or virus in culture; format: cell-based; settings: 36 h, read-out: Influenza replication IC50
# [3] = physchem; format: physicochemical; settings: kinetic from dmso stock
# Method: Samples were diluted in DMSO (control), phosphate buffer pH = 7.4 and pH = 2.0, from 5mM stock solutions (solved in DMSO), with a 120 µM final concentration. The samples were incubated for 24 hours at room temperature followed by 30 minutes centrifugation at 3700 rpm. 40 µl of the supernatants were injected into HPLC (Waters 2795 Alliance HPLC equipped with Waters 996 PDA Detector (HPLC column: Waters XBridge, RP C18, 3.5 µm, 4.6 mm x 50 mm; gradient MeCN/H2O, containing 0.1% HCOOH: 5% MeCN (0.5 min), 5% to 95% MeCN (5 min), 95% MeCN (0.5 min); flow rate: 2.0 ml/min)) and the AUC values (measured on sample specific wavelength) of the buffered samples were divided by the AUC values (same wavelength as buffered samples') of the DMSO control samples. Table 3: Solubility in water for several compounds according to general formula (I)
# [4] = target: human Ack1 kinase (Homo sapiens, UniProt Q07912); assay: In vitro Ack1 assay (TranScreener ADP2 FP, generation of ADP); format: biochemical; settings: 12.5 uM compound; 3.5 µM ATP; read-out: Ack1 inh% @12.5 uM
# Sequence of human Ack1 kinase (Q07912 whole entry): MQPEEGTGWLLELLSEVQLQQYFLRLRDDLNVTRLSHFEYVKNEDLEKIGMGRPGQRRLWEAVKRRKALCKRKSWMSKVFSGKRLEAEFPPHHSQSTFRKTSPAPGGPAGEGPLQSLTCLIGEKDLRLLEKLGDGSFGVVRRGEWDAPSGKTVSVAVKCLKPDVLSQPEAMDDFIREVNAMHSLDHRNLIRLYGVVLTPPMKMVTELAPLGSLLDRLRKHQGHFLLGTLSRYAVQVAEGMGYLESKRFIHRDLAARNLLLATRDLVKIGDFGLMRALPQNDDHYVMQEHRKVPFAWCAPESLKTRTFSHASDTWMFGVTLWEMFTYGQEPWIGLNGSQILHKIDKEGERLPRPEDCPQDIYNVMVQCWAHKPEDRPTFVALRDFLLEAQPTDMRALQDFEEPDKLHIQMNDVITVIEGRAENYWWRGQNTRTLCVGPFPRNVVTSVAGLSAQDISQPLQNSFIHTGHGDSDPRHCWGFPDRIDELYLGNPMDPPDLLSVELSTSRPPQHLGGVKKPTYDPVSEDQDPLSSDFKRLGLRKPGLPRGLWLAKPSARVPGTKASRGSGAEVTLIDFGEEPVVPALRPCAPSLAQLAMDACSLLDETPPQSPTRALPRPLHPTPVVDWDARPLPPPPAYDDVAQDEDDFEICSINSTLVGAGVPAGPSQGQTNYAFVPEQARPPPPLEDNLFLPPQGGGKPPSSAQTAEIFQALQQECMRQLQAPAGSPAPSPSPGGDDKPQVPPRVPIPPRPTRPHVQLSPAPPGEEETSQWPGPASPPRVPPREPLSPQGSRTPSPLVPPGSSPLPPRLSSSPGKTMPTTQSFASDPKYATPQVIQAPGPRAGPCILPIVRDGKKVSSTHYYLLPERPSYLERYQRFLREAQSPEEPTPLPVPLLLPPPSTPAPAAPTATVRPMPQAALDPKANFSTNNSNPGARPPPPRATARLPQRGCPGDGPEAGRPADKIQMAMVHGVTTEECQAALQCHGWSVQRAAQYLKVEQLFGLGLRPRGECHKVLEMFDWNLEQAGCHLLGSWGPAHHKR
# Method: The activity of the compounds described in the present invention can be determined by the following kinase assay, which measures the generation of ADP by human Ack1 kinase by fluorescent polarization using a commercially available TranScreener ADP2 FP Assay Kit (BellBrook Labs).
# Ack1 kinase assays were performed in low protein binding 384-well plates (Corning). Test compounds were diluted in 100% DMSO to 5 mM stock concentration and then further dilutions were made in H2O or 100% DMSO to desirable concentrations.
# Each reaction consisted of 5 nM enzyme: Ack1 kinase, Poly Glu-Tyr (4:1) (Sigma), 3.5 µM ATP and kinase buffer: 20 mM HEPES pH7.5, 1 mM DTT, 2 mM MgCl2, 0.4 mM MnCl2, 0.01 V/V% Tween20 (all reagents from Sigma-Aldrich)
# For each reaction, 4 or 6 µl containing Poly Glu-Tyr (4:1), ATP and kinase buffer were combined with 2 µl diluted compound in H2O or 0.02 µl compound in 100% DMSO. The kinase reaction was started by the addition of 2 µl diluted enzyme. The reaction was allowed to run for 1 hour at room temperature. The reaction was stopped by addition of 8 µl ADP detection mixture (1 x) (1 x Detection buffer + 4.78 µg/ml ADP2 Ab + 4 nM ADP Alexa633 Tracer). After an additional hour, fluorescent polarization (Ex: 630-35 nm, Em: 680-30 nm, Dich: 650 nm) was measured using an Analyst GT (Molecular Devices).
# [5] = target: T1, human Clk1 kinase (Homo sapiens, UniProt P49759); assay: In vitro Clk1 assay (IMAP fluorescence polarization); format: biochemical; settings: 0.45 µM ATP
# T1 construct: Each reaction consisted of 4 nM enzyme: Clk1 kinase domain
# T1 sequence (P49759 161-477 limits assumed): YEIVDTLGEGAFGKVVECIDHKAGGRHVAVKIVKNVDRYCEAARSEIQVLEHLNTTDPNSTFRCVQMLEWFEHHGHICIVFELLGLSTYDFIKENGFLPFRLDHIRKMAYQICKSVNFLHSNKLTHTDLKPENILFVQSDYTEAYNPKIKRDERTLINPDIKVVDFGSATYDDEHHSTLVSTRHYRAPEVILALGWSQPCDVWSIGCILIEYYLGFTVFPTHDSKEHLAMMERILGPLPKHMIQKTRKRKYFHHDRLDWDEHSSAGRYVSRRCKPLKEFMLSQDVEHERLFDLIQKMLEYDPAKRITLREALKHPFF
# Method: The activity of the compounds described in the present invention can be determined by the following kinase assay, which measures the phosphorylation of a fluorescently-labeled peptide by human Clk1 kinase by fluorescent polarization using a commercially available IMAP Screening Express Assay Kit (Molecular Devices).
# Clk1 kinase assays were performed in low protein binding 384-well plates (Corning). Test compounds were diluted in 100% DMSO to 5 mM stock concentration and then further dilutions were made in H2O or 100% DMSO to desirable concentrations.
# Each reaction consisted of 4 nM enzyme: Clk1 kinase domain, 400 nM TAMRA-AFRREWSPGKEAKK-NH2 (Genecust), 0.45 µM ATP (Sigma) and kinase buffer: 20 mM TRIS pH 8, 1 mM DTT, 0.4 mM MgCl2, 0.4 mM MnCl2, 0.01 V/V% Tween20 (all reagents from Sigma-Aldrich)
# as §1, with “(1:600” for “(1:400”, “(80 %” for “(75%”, “20%” for “25%”
# [6] = tested on: HKE3 human colon carcinoma cell line; assay: In vitro growth inhibition of colon carcinoma cells, HKE3 (CellTiter-Glo); format: cell-based; settings: 72 hours incubation
# [7] = tested on: A549 human lung carcinoma cells; assay: Cell-based EC50 determination, A549 cells (CellTiter-Glo cell viability); settings: A549, 24 h, read-out: A549 EC50 24h
# Method: A549 human lung carcinoma cells were cultured in RPMI 1640 medium (Sigma) supplemented with 10% fetal bovine serum (Sigma) and Antibiotic-Antimycotic (Sigma) in tissue culture flasks at 37°C in a humidified 5% CO2 atmosphere. Cells were routinely assayed for mycoplasma contamination.
# Two thousand cells were plated in 384-well tissue culture plates, and treated after 24 hours with a 10-point dilution series of the compounds (1.5 nM-30 uM), using the vehicle, DMSO as control. Cells were incubated for 24 hours after which the relative cell density was determined by CellTiter-Glo Luminescent Cell Viability Assay (Promega). This method determines the number of metabolically active cells in the culture based on quantitation of the ATP present. The luminescent signal was measured with an Analyst GT multimode reader (Molecular Devices). […]
# [8] = tested on: HepG2 hepatoblastomaderived cell line; assay: In vitro growth inhibition, HepG2 (CellTiter-Glo); format: cell-based; settings: Homo sapiens, 72 hours incubation
# [9] = tested on: HCT-116 human colon carcinoma cell line; assay: In vitro growth inhibition of colon carcinoma cells, HCT-116 (CellTiter-Glo); format: cell-based; settings: 72 hours incubation, read-out: HCT116 EC50
SMILES,inhibition at 12.5 µM [1] [%],IC50 [1] [µM],IC50 [2] [µM],"solubility at 24 h ([3]; pH 2, aqueous buffer) [µM]","solubility at 24 h ([3]; pH 7.4, aqueous buffer) [µM]",inhibition at 12.5 µM [4] [%],IC50 [5] [µM],EC50 [6] [µM],EC50 [7] [µM],EC50 [8] [µM],EC50 [9] [µM]
"C[C@@H](NC(=O)c1ccc2c(c1)/C(=C(/Nc1cccc(CN3CCCCC3)c1)c1ccccc1)C(=O)N2)c1ccccc1 [Compound 13, (3Z)-2-oxo-N-[(1R)-1-phenylethyl]-3-(phenyl{[3-(piperidin-1-ylmethyl)phenyl]amino}methylene)indoline-5-carboxamide]",60.6,5.94,0.16,110 to 120,< 10,13.7,0.03,0.14,9.34,5.66,0.17
"CC[C@@H](NC(=O)c1ccc2c(c1)/C(=C(/Nc1ccc(CN3CCCCC3)cc1)c1ccccc1)C(=O)N2)c1ccccc1 [Compound 18, (3Z)-2-oxo-3-(phenyl{[4-(piperidin-1-ylmethyl)phenyl]amino}methylene)-N-[(1R)-1-phenylpropyl]indoline-5-carboxamide]",92.1,0.57,< 0.01,110 to 120,< 10,85.9,0.03,0.004,> 30,0.31,0.01
"O=C1Nc2ccc(C(=O)NCc3ccccc3)cc2/C1=C(/Nc1ccc(CN2CCCCC2)cc1)c1ccccc1 [Compound 20, (3Z)-N-benzyl-2-oxo-3-(phenyl{[4-(piperidin-1-ylmethyl)phenyl]amino}methylene)indoline-5-carboxamide]",91.6,0.91,< 0.01,110 to 120,< 10,72.7,0.01,0.01,> 30,0.79,0.02
"COc1ccc([C@@H](C)NC(=O)c2ccc3c(c2)/C(=C(/Nc2ccc(CN4CCCCC4)cc2)c2ccccc2)C(=O)N3)cc1 [Compound 21, (3Z)-N-[(1R)-1-(4-methoxyphenyl)ethyl]-2-oxo-3-(phenyl{[4-(piperidin-1-ylmethyl)phenyl]amino}methylene)indoline-5-carboxamide]",78.2,1.7,1.48,100 to 110,< 10,87,0.02,0.32,> 30,5.3,0.41
"COc1cccc([C@@H](C)NC(=O)c2ccc3c(c2)/C(=C(/Nc2ccc(CN4CCCCC4)cc2)c2ccccc2)C(=O)N3)c1 [Compound 22, (3Z)-N-[(1R)-1-(3-methoxyphenyl)ethyl]-2-oxo-3-(phenyl{[4-(piperidin-1-ylmethyl)phenyl]amino}methylene)indoline-5-carboxamide]",88,0.11,< 0.01,110 to 120,< 10,83.8,0.02,0.02,> 30,1.06,0.04
"C[C@@H](NC(=O)c1ccc2c(c1)/C(=C(/Nc1ccc(CN3CCCCC3)cc1)c1ccccc1)C(=O)N2)c1ccc(F)cc1 [Compound 23, (3Z)-N-[(1R)-1-(4-fluorophenyl)ethyl]-2-oxo-3-(phenyl{[4-(piperidin-1-ylmethyl)phenyl]amino}methylene)indoline-5-carboxamide]",92.1,0.18,< 0.01,110 to 120,< 10,91.1,0.02,0.04,15.3,0.92,0.04
"COc1cccc([C@@H](C)NC(=O)c2ccc3c(c2)/C(=C(/Nc2cccc(CN4CCCCC4)c2)c2ccccc2)C(=O)N3)c1 [Compound 24, (3Z)-N-[(1R)-1-(3-methoxyphenyl)ethyl]-2-oxo-3-(phenyl{[3-(piperidin-1-ylmethyl)phenyl]amino}methylene)indoline-5-carboxamide]",76.8,0.88,0.42,110 to 120,< 10,13.7,0.08,0.29,11.8,6.09,0.38
"Cc1ccc([C@@H](C)NC(=O)c2ccc3c(c2)/C(=C(/Nc2cccc(CN4CCCCC4)c2)c2ccccc2)C(=O)N3)cc1 [Compound 27, (3Z)-N-[(1R)-1-(4-methylphenyl)ethyl]-2-oxo-3-(phenyl{[3-(piperidin-1-ylmethyl)phenyl]amino}methylene)indoline-5-carboxamide]",81.3,2.96,2.46,110 to 120,< 10,9.9,0.2,1.32,25.4,5.24,1.41
